What all share (conditions): stereoisomer not certain
Data set [1] is described as follows: RP, Waters CORTECS T3, 100 × 2.1 mm, 2.7 µm, 0.3 mL/min, estimated dead time 0.73 min; A: water + 0.1% formic acid, pH 3; B: methanol + 0.1% formic acid, pH 3; gradient (min/%B) 0/5 5/5 25/100 30/100 30.1/5 35/5.
A short description of data set [2]: RP, Waters CORTECS T3, 100 × 2.1 mm, 2.7 µm, 0.3 mL/min, estimated dead time 0.73 min; A: water + 0.1% formic acid, pH 3; B: methanol + 0.1% formic acid, pH 3; gradient (min/%B) 0/0 5/0 25/100 30/100 30.1/0 35/0.
Data set [3] can be described thus: RP, Waters CORTECS T3, 100 × 2.1 mm, 2.7 µm, 0.2 mL/min, estimated dead time 1.1 min; A: water + 0.1% formic acid, pH 3; B: methanol + 0.1% formic acid, pH 3; gradient (min/%B) 0/0 1/0 6/5 30/100 35/100 35.1/0 40/0.
Data set [4] is described as follows: RP, Waters CORTECS T3, 100 × 2.1 mm, 2.7 µm, 0.15 mL/min, estimated dead time 1.5 min; A: water + 0.1% formic acid, pH 3; B: methanol + 0.1% formic acid, pH 3; gradient (min/%B) 0/0 1/0 6/5 30/100 35/100 35.1/0 40/0.
The nature of data set [5]: RP, Waters CORTECS T3, 100 × 2.1 mm, 2.7 µm, 0.3 mL/min, estimated dead time 0.73 min; A: water + 0.1% formic acid, pH 3; B: methanol + 0.1% formic acid, pH 3; gradient (min/%B) 0/0 1/0 6/5 30/100 35/100 35.1/0 40/0.
Data set [6] in a line: RP, Waters CORTECS T3, 100 × 2.1 mm, 2.7 µm, 0.25 mL/min, estimated dead time 0.88 min; A: water + 0.1% formic acid, pH 3; B: methanol + 0.1% formic acid, pH 3; gradient (min/%B) 0/0 1/0 6/5 30/100 35/100 35.1/0 40/0.
Data set [7] in a line: RP, Waters CORTECS T3, 100 × 2.1 mm, 2.7 µm, 0.1 mL/min, estimated dead time 2.2 min; A: water + 0.1% formic acid, pH 3; B: methanol + 0.1% formic acid, pH 3; gradient (min/%B) 0/5 5/5 25/95 25.1/100 35/100 35.1/5 45/5.
Data set [8] is described as follows: RP, Thermo Scientific Hypercarb, 150 × 2.1 mm, 5 µm, 0.1 mL/min, estimated dead time 3.3 min; A: water + 0.1% formic acid, pH 3; B: methanol + 0.1% formic acid, pH 3; gradient (min/%B) 0/5 5/5 20/100 35/100 35.1/5 45/5.
A short description of data set [9]: RP, Waters CORTECS T3, 100 × 2.1 mm, 2.7 µm, 0.3 mL/min, estimated dead time 0.73 min; A: water + 0.1% formic acid, pH 3; B: methanol + 0.1% formic acid, pH 3; gradient (min/%B) 0/5 5/5 25/95 25.1/100 35/100 35.1/5 45/5.
Data set [10] is described as follows: RP, Waters ACQUITY UPLC BEH C18, 100 × 2.1 mm, 1.7 µm, 0.1 mL/min, estimated dead time 2.2 min; A: water + 0.1% formic acid, pH 3; B: methanol + 0.1% formic acid, pH 3; gradient (min/%B) 0/5 5/5 25/100 30/100 30.1/5 35/5.
The nature of data set [11]: RP, Waters CORTECS T3, 100 × 2.1 mm, 2.7 µm, 0.2 mL/min, estimated dead time 1.1 min; A: water + 0.045% formic acid + 0.11% ammonium hydroxide, pH 7; B: methanol; gradient (min/%B) 0/5 5/5 25/95 25.1/100 35/100 35.1/5 45/5.
Data set [12] in a line: RP, Waters ACQUITY UPLC BEH C18, 100 × 2.1 mm, 1.7 µm, 0.1 mL/min, estimated dead time 2.2 min; A: water + 0.1% formic acid, pH 3; B: methanol + 0.1% formic acid, pH 3; gradient (min/%B) 0/5 5/5 25/95 25.1/100 35/100 35.1/5 45/5.
Data set [13] in a line: RP, Waters ACQUITY UPLC BEH C18, 100 × 2.1 mm, 1.7 µm, 0.1 mL/min, estimated dead time 2.2 min; A: water + 0.045% formic acid + 0.11% ammonium hydroxide, pH 7; B: methanol; gradient (min/%B) 0/5 5/5 25/95 25.1/100 35/100 35.1/5 45/5.
Data set [14] is described as follows: RP, Waters ACQUITY UPLC BEH C18, 100 × 2.1 mm, 1.7 µm, 0.2 mL/min, estimated dead time 1.1 min; A: water + 0.025% formic acid + 20 mM ammonium acetate + 0.055% ammonium hydroxide, pH 7; B: methanol; gradient (min/%B) 0/5 5/5 25/100 30/100 30.1/5 35/5.
The nature of data set [15]: RP, Waters CORTECS T3, 100 × 2.1 mm, 2.7 µm, 0.3 mL/min, estimated dead time 0.73 min; A: water + 0.1% formic acid, pH 3; B: methanol + 0.1% formic acid, pH 3; gradient (min/%B) 0/0 5/0 25/100 30/100 30.1/0 35/0. This is another data set of the same source.
The nature of data set [16]: RP, Waters CORTECS T3, 100 × 2.1 mm, 2.7 µm, 0.2 mL/min, estimated dead time 1.1 min; A: water + 0.1% formic acid, pH 3; B: methanol + 0.1% formic acid, pH 3; gradient (min/%B) 0/0 1/0 6/5 30/100 35/100 35.1/0 40/0. This is another data set of the same source.
A short description of data set [17]: RP, Waters CORTECS T3, 100 × 2.1 mm, 2.7 µm, 0.3 mL/min, estimated dead time 0.73 min; A: water + 0.1% formic acid, pH 3; B: methanol + 0.1% formic acid, pH 3; gradient (min/%B) 0/0 1/0 6/5 30/100 35/100 35.1/0 40/0. This is another data set of the same source.
The nature of data set [18]: RP, Waters CORTECS T3, 100 × 2.1 mm, 2.7 µm, 0.2 mL/min, estimated dead time 1.1 min; A: water + 0.1% formic acid, pH 3; B: methanol + 0.1% formic acid, pH 3; gradient (min/%B) 0/5 5/5 25/95 25.1/100 35/100 35.1/5 45/5.
Data set [19] can be described thus: RP, Waters ACQUITY UPLC BEH C18, 100 × 2.1 mm, 1.7 µm, 0.2 mL/min, estimated dead time 1.1 min; A: water + 0.1% formic acid, pH 3; B: methanol + 0.1% formic acid, pH 3; gradient (min/%B) 0/5 5/5 25/100 30/100 30.1/5 35/5.
A short description of data set [20]: RP, Waters CORTECS T3, 100 × 2.1 mm, 2.7 µm, 0.25 mL/min, estimated dead time 0.88 min; A: water + 0.1% formic acid, pH 3; B: methanol + 0.1% formic acid, pH 3; gradient (min/%B) 0/5 5/5 25/95 25.1/100 35/100 35.1/5 45/5.
Data set [21] is described as follows: RP, Waters CORTECS T3, 100 × 2.1 mm, 2.7 µm, 0.1 mL/min, estimated dead time 2.2 min; A: water + 0.1% formic acid, pH 3; B: methanol + 0.1% formic acid, pH 3; gradient (min/%B) 0/0 1/0 6/5 30/100 35/100 35.1/0 40/0.

Data on eleven compounds can be found in the RepoRT retention time repository (doi:10.1016/j.jchromb.2020.122105).

In the case of `NC(=O)c1cccnc1` [NICOTINAMIDE], the LC retention time in data set [1] was 1.2 min; in data set [2], 1.63 min; in [3], 2.36 min; in [4], 3.31 min; in data set [5], 1.57 min; in data set [6] it was 1.9 min. Moreover, the LC retention time in data set [7] is 3.38 min; in [8] it was 24.4 min; in [9], 1.17 min; in data set [10], 3.66 min; in data set [11], 3.68 min; in data set [12] it was 2.69 min. In addition, the LC retention time in data set [13] was 6.91 min; in [14], 3.89 min.

For `CN(CC(=O)O)C(N)=NP(=O)(O)O` [CREATINE PHOSPHATE], the LC retention time in data set [12] was 3.05 min.

Turning to `Nc1nc2c(ncn2C2OC(COP(=O)(O)O)C(O)C2O)c(=O)[nH]1` (centres undefined) [GUANOSINE 5'-MONOPHOSPHATE], the LC retention time was 0.89 min in data set [15]; 1.35 min in data set [16]; 0.92 min in data set [17]; 1.09 min in data set [6]; 2.67 min in data set [18]; 0.9 min in data set [9]. Further, the LC retention time was 1.79 min in data set [19], 1.08 min in data set [20] and 2.84 min in [12].

Consider `CCCCCCCCCC(=O)OCC(COP(=O)([O-])OCC[N+](C)(C)C)OC(=O)CCCCCCCCC` (centres undefined) [1,2-DIDECANOYL-SN-GLYCERO-3-PHOSPHOCHOLINE], for which the LC retention time is 24.3 min in data set [1]; 29.8 min in data set [3]; 30.9 min in data set [4]; 28.7 min in [5]; 29.2 min in [6]; 25.3 min in data set [9]. The LC retention time in data set [11] was 26 min; in [12], 29.7 min; in data set [13], 29.7 min; in [14] it was 26 min.

On to `C[N+](C)(C)CCOP(=O)(O)OP(=O)([O-])OCC1OC(n2ccc(N)nc2=O)C(O)C1O` (centres undefined) [CYTIDINE 5'-DIPHOSPHOCHOLINE], for which the LC retention time is 1.34 min in data set [3], 1.78 min in [4], 1.09 min in data set [6] and 2.72 min in data set [12].

For the compound `O=c1cccc[nH]1` [2-HYDROXYPYRIDINE], the LC retention time is 1.91 min in [1]; 2.85 min in [2]; 4.15 min in data set [3]; 2.74 min in data set [21]; 5.81 min in data set [4]; 2.69 min in data set [5]. The LC retention time was 3.26 min in data set [6]; 5.41 min in data set [7]; 1.89 min in data set [9]; 5.99 min in data set [10]; 2.92 min in data set [11]; 2.75 min in [12]. Besides, the LC retention time in data set [13] was 5.83 min; in data set [14], 3.24 min.

Take `C[N+](C)(C)CCOP(=O)(O)O` [PHOSPHOCHOLINE]: the figures for the LC retention time in data set [8] and in data set [12] were 4.81 min and 2.66 min, respectively.

As to `O=c1cc[nH]c(=O)[nH]1` [URACIL], the LC retention time in [1] is 0.95 min; in data set [2] it was 0.91 min; in [3], 1.36 min; in data set [4] it was 1.85 min; in data set [6], 1.11 min; in data set [7] it was 2.68 min. For the same compound, the LC retention time is 21.2 min in data set [8], 2.76 min in data set [10] and 2.69 min in data set [12].

With `C[N+](C)(C)CCOP(=O)([O-])OCC(O)CO` (centres undefined) [SN-GLYCERO-3-PHOSPHOCHOLINE], the LC retention time in data set [8] is 5.02 min; in data set [12], 2.66 min.

Take `NC(=O)c1ccc[n+](C2OC(COP(=O)(O)OP(=O)(O)OCC3OC(n4cnc5c(N)ncnc54)C(O)C3O)C(O)C2O)c1` (centres undefined) [NAD]: the LC retention time in data set [10] is 2.74 min; in data set [12] it was 2.78 min.

`NCCP(=O)(O)O` [(2-AMINOETHYL)PHOSPHONATE]: the LC retention time is 2.44 min in [18] and 2.75 min in data set [12].
